Assay results: patent US20250345469A1, “COMPOSITION COMPRISING A RAPALOG AND A RADIOLABELLED GASTRIN ANALOGUE, IN PARTICULAR FOR USE IN THE TREATMENT AND/OR DIAGNOSIS OF CCKB RECEPTOR POSITIVE CANCER OR TUMORS” (Paul Scherrer Institut, priority 2020, published 2025)
Read-outs that look alike come from different tables or passages of the source.

Assays:
A431/CCKBR cells [1] = test: Proliferation assay (CellTiter 96 AQueous, MTS); type: cell-based, human; settings: 10 μM kinase inhibitor; FIG. 1C
Description: Cells were seeded in 96-well plates before treatment as described above, and cell proliferation was analyzed by a CellTiter 96 AQueous Non-Radioactive Cell Proliferation Assay (Promega) according to the manufacturer's instructions. Absorbance of MTS bio-reduced into a formazan was measured at 570 nm with a reference of 650 nm using a MicroPlate Reader (PerkinElmer). The assay was performed in triplicate.

A431/CCKBR tumors = test: Immunochemistry (HE and Ki67 staining) of tumor sections; type: in vivo, mouse; settings: five daily doses; for necrosis (percent of necrotic area): PBS-treated tumors 1.4±1.2%; for mitotic index: control 1.08±0.2%; for Ki67 positive cells: control 80±3.1%
Description: Paraffin sections of formalin-fixed A431/CCKBR tumors were subjected to deparaffinization. Rehydrated slides were pretreated in 10 mM citrate buffer, pH 6.0, at 98° C. for 60 minutes, followed by incubation with 4% fat-free milk in PBS for 90 minutes. For avidin/biotin blocker treatment (Invitrogen) and detection, the ABC method was used according to the manufacturer's instructions. For monoclonal antibody against Ki67 (Thermo Scientific, SP6) signals were recorded using an automated instrument reagent system (Discovery XT, Ventana Medical System Inc.) according to the user manual. Images of hematoxylin-counterstained sections were captured (Nikon, YTHM) and analyzed using ImageAccess Enterprise7 and ImageJ software (Schneider et al. Nat Methods 2012, 9(7), 671-675).
Paraffin tumor sections prepared from A431/CCKBR-tumor bearing nude mice treated with five daily doses of RAD001, metformin and PBS (control) were subjected to immunohistochemistry. RAD001 and PBS group includes 5 tumors, while in metformin group 4 tumors were analyzed.

A431/CCKBR xenograft [2] = test: Biodistribution study in A431/CCKBR xenograft mouse model; settings: three daily doses, FIG. 7B
Description: (§2) Immunocompromised CD-1 female nude mice (Charles Rivers, Germany) were housed one week before experimentation. Prior to tumor implantation, A431/CCKBR cells were harvested and 5 min cells in 0.1 mL of sterile phosphate-buffered saline (PBS) containing 0.9% NaCl were injected subcutaneously (two tumors per animal) into mice anesthetized by isoflurane/oxygen inhalation. After 5 days, animals were randomly distributed into 3 experimental groups and tumor size was measured non-invasively with a caliper. RAD001 (3 mg/kg), metformin (200 mg/kg) or PBS (control) were administered daily via intraperitoneal injection for 3 or 5 consecutive days, as indicated. […] Post mortem dissected tumors and organs were weighed and their activity was measured in a gamma counter.
(§3) To investigate the effects of RAD001 and metformin in vivo, A431/CCKBR cells were implanted subcutaneously into immunocompromised nude mice, and 5 days later after tumor formation, mice were subjected to treatment with RAD001, metformin or PBS (control) as described above.

[3] = tested on: A431/CCKBR-tumor bearing nude mice; test: Animal therapeutic study: tumor growth and survival; type: in vivo, mouse; settings: for average tumor size on day 13: control 0.97 cm^3; for Median Survival: control 19.5
Description: For the animal study, human epidermoid carcinoma A431 cell line, which overexpresses CCKBR, was generated previously and kindly provided by Dr. Luigi Aloj. A431/CCKBR cells were cultured in DMEM, supplemented with 10% FCS, 2 mM glutamine and antibiotics (0.1 mg/mL streptomycin, 100 IU penicillin) at 37° C. and 5% CO2. […] RAD001 (3 mg/kg), or PBS (control) were administered via intraperitoneal injection daily for 5 or 10 days, as indicated. […] The tumor diameters and mice weight were recorded daily. The tumor volume was calculated by using the formula V=(W2×L)/2. The nude mice were sacrificed when the tumor volume exceeded 1.5 cm^3. […] These mice were excluded from the analysis.
In this experiment, GraphPad Prism 7.00 for Windows was used for all statistical analysis. One-way ANOVA combined with two-stage linear step-up procedure of Benjamini, Krieger and Yekutieli for multiple comparison test was used for all treated groups. Log-rank (Mantel-Cox) test was performed to compare different survival curves of the treatment groups with the control group. Endpoints were defined as death in the survival curves. Values of P≤0.05 were considered statistically significant.

AR42J cells = test: In vitro radiolabelled peptide internalization assay; type: cell-based, rat; settings: AR42J cell lysates, FIG. 2B
Description: (§1) 2.5×10^5 cells were seeded on 6-well plates. Eight hours later cells were treated with appropriate inhibitors (as indicated) for 20 h. […] After 1 or 2 h incubation, radioactive medium (together with PBS wash) was collected and the cells were subjected to 2× wash with glycine buffer (pH=2) for 5 min at RT followed by a dissolving step in 1 M NaOH for 15 min at 37° C. […] Protein concentration of NaOH-dissolved cell lysates was measured by spectrophotometry using a NanoPhotometer® UV-Vis P-Class (Implen).

CCKBR = test: WB analysis of CCKBR expression in deglycosylated lysates; type: cell-based, human; settings: 50 nM or 100 nM RAD001, 20 h, A431/CCKBR cells
Description: For CCKBR-specific knock-down, duplex siRNAs against CCKBR or control duplex against luciferase (Microsynth) were used at a final concentration of 100 nM in Optimem (Gibco): CCKBRseq1 sense RNA 5′-[…]dTdT-3′(SEQ ID NO:5), CCKBRseq2 sense RNA 5′-[…]dTdT-3′(SEQ ID NO:6) and control sense RNA 5′-[…]dTdT-3′(SEQ ID NO:7). Cells at 60-80% confluence were transfected with siRNAs by using Lipofectamin 3000 according to the user's manual. Total protein lysates were subjected to WB analysis.
Antibodies against phospho-S6 at S235/S236 (D57.2.2F) and GAPDH (14C10) were obtained from Cell Signaling Technology, whereas anti-CCKBR (ab77077) was from Abcam. Cells were homogenized in lysis buffer (50 mM Tris-HCl pH 7.5, 150 mM NaCl, 1% Triton X, 0.1% SDS supplemented with 1 mM sodium orthovanadate, 1 mM NaF and protease inhibitor cocktail (Roche)). Aliquots of 50 μg protein extracts were separated by SDS-PAGE and transferred to PVDF membranes (Millipore) by electroblotting. Membranes were blocked with 5% skim milk in TBST (0.1% Tween 20) for 1 h, and incubated with 2% BSA in TBST overnight with the primary antibody followed by 2 h incubation with HRP-conjugated secondary antibody. Protein-specific signals were detected by a chemiluminescence reagent (ECL) and signals were acquired by using ImageQuant RT ECL Imager (GE Healthcare). […]

A431/CCKBR cells [4] = test: In vitro radiolabelled peptide internalization assay; type: cell-based, human; settings: for Protein levels as compared to control: A431/CCKBR cell lysates, 20 h treatment, FIG. 2B; for membrane bound activity: treated vs control cells, FIG. 2A
Description: as §1

[5] = tested on: mTORC1-regulated phosphorylation of ribosomal protein S6 at Ser235/236; test: WB analysis of phospho-S6 (mTORC1 activity); type: cell-based, human; settings: A431/CCKBR cells, 20 h treatment, FIG. 2C
Description: The inhibitor activity of the rapamycin and/or rapalog towards mTORC1 can be determined by measuring the level of phosphorylation of ribosomal protein S6 by Western Blot analysis as described further below.
Antibodies against phospho-S6 at S235/S236 (D57.2.2F) and GAPDH (14C10) were obtained from Cell Signaling Technology, whereas anti-CCKBR (ab77077) was from Abcam. Cells were homogenized in lysis buffer (50 mM Tris-HCl pH 7.5, 150 mM NaCl, 1% Triton X, 0.1% SDS supplemented with 1 mM sodium orthovanadate, 1 mM NaF and protease inhibitor cocktail (Roche)). Aliquots of 50 μg protein extracts were separated by SDS-PAGE and transferred to PVDF membranes (Millipore) by electroblotting. Membranes were blocked with 5% skim milk in TBST (0.1% Tween 20) for 1 h, and incubated with 2% BSA in TBST overnight with the primary antibody followed by 2 h incubation with HRP-conjugated secondary antibody. Protein-specific signals were detected by a chemiluminescence reagent (ECL) and signals were acquired by using ImageQuant RT ECL Imager (GE Healthcare).

A431/CCKBR xenograft [6] = settings: in vivo
Description: as §2, §3

SMILES | changes in cell proliferation (A431/CCKBR cells [1]) | necrosis (percent of necrotic area) (A431/CCKBR tumors) | mitotic index (A431/CCKBR tumors) | Ki67 positive cells (A431/CCKBR tumors) | mouse weight (A431/CCKBR xenograft [2]) | tumor volume (A431/CCKBR xenograft [2]) | average tumor size on day 13 ([3]; 5 doses of RAD001 (3 mg/kg i.p. daily)) | average tumor size on day 13 ([3]; 10 doses of RAD001 (3 mg/kg i.p. daily)) | Median Survival ([3]; RAD001 5x) | Median Survival ([3]; RAD001 10x) | tumor growth ([3]; vs control, FIG. 10B) | Protein levels as compared to control (AR42J cells) | increase of the CCKBR expression (CCKBR) | Protein levels as compared to control (A431/CCKBR cells [4]) | membrane bound activity (A431/CCKBR cells [4]) | phosphorylation of ribosomal protein S6 at Ser235/236 [5] | mouse weight (A431/CCKBR xenograft [6])
O=C(O)c1ccc2nc(-c3ccccc3)c(-c3ccccc3)nc2c1 [BML257] | did not show significant changes in cell proliferation |  |  |  |  |  |  |  |  |  |  |  |  |  |  |  | 
CO[C@H]1C[C@@H]2CC[C@@H](C)[C@@](O)(O2)C(=O)C(=O)N2CCCC[C@H]2C(=O)O[C@H]([C@H](C)C[C@@H]2CC[C@@H](OCCO)[C@H](OC)C2)CC(=O)[C@H](C)/C=C(\C)[C@@H](O)[C@@H](OC)C(=O)[C@H](C)C[C@H](C)/C=C/C=C/C=C/1C [RAD001, Everolimus] |  | 10.6±6.4% | 0.75±0.36% | 61±8.6% | without influencing overall mouse weight | significantly reduced tumor volumes | 0.31 cm^3 | 0.11 cm^3 | 27 days | 32 days | significantly inhibited tumor growth | 84% | approximately 2.2 fold | 80% | no significant difference in membrane bound activity | lack of mTORC1-regulated phosphorylation of ribosomal protein S6 at Ser235/236 | 
CN(C)C(=N)N=C(N)N [metformin] |  | did not show significant difference | did not cause significant change | did not cause significant change |  | no effect on tumor volume or mouse weight |  |  |  |  |  |  |  | 79% | no significant difference in membrane bound activity | lack of mTORC1-regulated phosphorylation of ribosomal protein S6 at Ser235/236 | no effect on tumor volume or mouse weight
CO[C@H]1C[C@@H]2CC[C@@H](C)[C@@](O)(O2)C(=O)C(=O)N2CCCC[C@H]2C(=O)O[C@H]([C@H](C)C[C@@H]2CC[C@@H](O)[C@H](OC)C2)CC(=O)[C@H](C)/C=C(\C)[C@@H](O)[C@@H](OC)C(=O)[C@H](C)C[C@H](C)/C=C/C=C/C=C/1C [rapamycin] | did not show significant changes in cell proliferation |  |  |  |  |  |  |  |  |  |  |  |  |  |  |  | 
